Results on 23 compounds are retold here after US10689354B2, “Aminoazole derivative” (Teijin Pharma Limited, priority 2015, dated 2020).

In experiment [1] the target is T1, androgen receptor (AR-LBD) (Rattus norvegicus, UniProt P15207).
T1 construct: 5 μL of 2×AR-LBD/Fluoromone AL Red Complex contained in the kit; purchased Invitrogen
T1 sequence (P15207 651-882 limits assumed): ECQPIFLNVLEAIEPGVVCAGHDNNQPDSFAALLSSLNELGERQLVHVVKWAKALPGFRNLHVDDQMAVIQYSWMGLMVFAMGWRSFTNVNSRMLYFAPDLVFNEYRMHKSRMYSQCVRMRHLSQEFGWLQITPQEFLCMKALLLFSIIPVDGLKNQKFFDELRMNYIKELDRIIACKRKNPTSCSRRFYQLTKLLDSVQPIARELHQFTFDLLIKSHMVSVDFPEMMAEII
Nature of the experiment: Evaluation of androgen receptor affinity (PolarScreen Androgen Receptor Competitor Assay Kit, Red; fluorescence polarization). To be noted: 22° C. for 5 hours, relative to binding rate of 1 μM DHT, read-out: AR affinity (pEC50) (converted). In a few lines: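 pEC50 values reflect tracer displacement from AR-LBD (Fluoromone AL Red complex) measured by fluorescence polarization after 5 h at 22° C, normalized to 1 μM DHT and fitted with a 4-parameter model.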

For experiment [2], the target named is T2, human androgen receptor (Homo sapiens, UniProt P10275).
T2 construct: expressed in transfected cells; host or cells: HEK293
T2 sequence (P10275 1-920): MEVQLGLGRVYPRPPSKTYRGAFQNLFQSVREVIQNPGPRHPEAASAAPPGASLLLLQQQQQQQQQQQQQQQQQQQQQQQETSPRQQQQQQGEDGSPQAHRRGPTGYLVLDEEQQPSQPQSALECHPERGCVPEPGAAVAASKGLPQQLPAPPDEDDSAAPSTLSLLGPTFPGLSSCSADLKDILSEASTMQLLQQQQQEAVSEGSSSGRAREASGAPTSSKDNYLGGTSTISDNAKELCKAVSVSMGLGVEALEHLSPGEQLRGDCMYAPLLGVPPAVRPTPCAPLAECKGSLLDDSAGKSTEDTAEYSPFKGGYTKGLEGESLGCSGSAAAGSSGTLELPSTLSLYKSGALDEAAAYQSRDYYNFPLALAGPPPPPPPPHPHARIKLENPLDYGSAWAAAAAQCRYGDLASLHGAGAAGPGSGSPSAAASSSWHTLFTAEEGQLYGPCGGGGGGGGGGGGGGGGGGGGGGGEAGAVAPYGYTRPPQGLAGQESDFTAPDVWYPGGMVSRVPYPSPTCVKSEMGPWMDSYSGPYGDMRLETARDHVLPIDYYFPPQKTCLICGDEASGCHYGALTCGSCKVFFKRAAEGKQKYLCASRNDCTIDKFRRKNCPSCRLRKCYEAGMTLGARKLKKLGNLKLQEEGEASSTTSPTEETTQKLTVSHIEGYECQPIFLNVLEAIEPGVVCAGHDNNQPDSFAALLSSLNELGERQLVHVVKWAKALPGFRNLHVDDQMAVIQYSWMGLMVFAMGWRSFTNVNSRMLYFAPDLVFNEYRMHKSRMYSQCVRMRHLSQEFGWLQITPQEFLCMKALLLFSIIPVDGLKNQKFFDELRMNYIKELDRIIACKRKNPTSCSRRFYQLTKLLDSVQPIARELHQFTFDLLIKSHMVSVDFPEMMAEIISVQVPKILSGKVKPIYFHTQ
In words: Reporter assay of an androgen receptor responsive sequence (luciferase, transiently transfected HEK293 cells). Particulars: 24 hours incubation, relative to activity of 100 nM DHT, read-out: AR transcriptive activity (pEC50) (converted). In kind it is cell-based. The procedure, abridged:
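HEK293 cells transiently transfected for 3 h with ARE-firefly luciferase, full-length human AR and TK-Renilla plasmids, then exposed to compound for 24 h at 37 °C in 5% charcoal-treated FBS/DMEM. Dual-Glo luminescence read; pEC50 from 4-parameter fit relative to 100 nM DHT.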

With `COCCCS(=O)(=O)NC(=O)c1nc(N(Cc2ccc(C(F)(F)F)nc2)c2ccc(C#N)cc2)sc1C` [Compound 164, 2-[4-cyano-N-[[6-(trifluoromethyl)-3-pyridyl]methyl]anilino]-N-(3-methoxypropylsulfonyl)-5-methyl-thiazole-4-carboxamide], the EC50 in experiment [1] is 251 nM; in experiment [2] it was 631 nM.
Regarding `Cc1sc(N(CCc2ccc(C#N)cc2)Cc2ccc(Cl)cc2)nc1C(=O)NS(=O)(=O)Cc1cccnc1` [Compound 321, 2-[(4-chlorophenyl)methyl-[2-(4-cyanophenyl)ethyl]amino]-5-methyl-N-(3-pyridylmethylsulfonyl)thiazole-4-carboxamide], the figures for the EC50 in experiment [1] and in experiment [2] were 20 nM and 100 nM, respectively.
The corresponding values for `Cc1sc(N(CCc2ccc(C#N)cc2)Cc2ccc(Cl)cc2)nc1C(=O)NS(=O)(=O)Cc1cccc(F)c1` [Compound 322, 2-[(4-chlorophenyl)methyl-[2-(4-cyanophenyl)ethyl]amino]-N-[(3-fluorophenyl)methylsulfonyl]-5-methyl-thiazole-4-carboxamide] are 63.1 nM and > 10000 nM.
Taken in the same sequence, the figures for `Cc1sc(N(CCc2ccc(C#N)cc2)Cc2ccc(OC(F)(F)F)cc2)nc1C(=O)NS(C)(=O)=O` [Compound 323, 2-[2-(4-cyanophenyl)ethyl-[[4-(trifluoromethoxy)phenyl]methyl]amino]-5-methyl-N-methylsulfonyl-thiazole-4-carboxamide] were 25.1 nM and 251 nM.
The corresponding values for `Cc1sc(N(CCc2ccc(C#N)cc2)Cc2ccc(OC(F)(F)F)cc2)nc1C(=O)NS(=O)(=O)Cc1cccnc1` [Compound 324, 2-[2-(4-cyanophenyl)ethyl-[[4-(trifluoromethoxy)phenyl]methyl]amino]-5-methyl-N-(3-pyridylmethylsulfonyl)thiazole-4-carboxamide] are 20 nM and 100 nM.
Consider `Cc1sc(N(CCC2CCCCC2)Cc2ccc(Cl)cc2)nc1C(=O)NS(=O)(=O)Cc1cccnc1` [Compound 325, 2-[(4-chlorophenyl)methyl-(2-cyclohexylethyl)amino]-5-methyl-N-(3-pyridylmethylsulfonyl)thiazole-4-carboxamide], for which the EC50 was 31.6 nM in experiment [1] and 398 nM in experiment [2].
As for `Cc1sc(N(CCn2cc(C#N)cn2)Cc2ccccc2)nc1C(=O)NS(C)(=O)=O` [Compound 326, 2-[benzyl-[2-(4-cyanopyrazol-1-yl)ethyl]amino]-5-methyl-N-methylsulfonyl-thiazole-4-carboxamide], the EC50 in experiment [1] was 631 nM; in experiment [2], 1000 nM.
As for `Cc1sc(N(Cc2ccccc2)CC(F)(F)c2ccc(Cl)cc2)nc1C(=O)NS(C)(=O)=O` [Compound 329, 2-[benzyl-[2-(4-chlorophenyl)-2,2-difluoro-ethyl]amino]-5-methyl-N-methylsulfonyl-thiazole-4-carboxamide], the EC50 in experiment [1] was 126 nM; in experiment [2], 3980 nM.
Taken in the same sequence, the figures for `Cc1sc(N(CCc2cccc(C(F)(F)F)c2)Cc2ccccc2)nc1C(=O)NS(C)(=O)=O` [Compound 330, 2-[benzyl-[2-[3-(trifluoromethyl)phenyl]ethyl]amino]-5-methyl-N-methylsulfonyl-thiazole-4-carboxamide] were 251 nM and > 10000 nM.
The corresponding values for `Cc1sc(N(CCc2ccc(C(F)(F)F)cc2)Cc2ccccc2)nc1C(=O)NS(C)(=O)=O` [Compound 333, 2-[benzyl-[2-[4-(trifluoromethyl)phenyl]ethyl]amino]-5-methyl-N-methylsulfonyl-thiazole-4-carboxamide] are 25.1 nM and 100 nM.
The corresponding values for `Cc1sc(N(Cc2ccccc2)c2ccc3ncsc3c2)nc1C(=O)NS(C)(=O)=O` [Compound 335, 2-[1,3-benzothiazol-6-yl(benzyl)amino]-5-methyl-N-methylsulfonyl-thiazole-4-carboxamide] are 631 nM and 1580 nM.
On to `Cc1sc(N(CCc2ccccc2F)Cc2ccccc2)nc1C(=O)NS(C)(=O)=O` [Compound 339, 2-[benzyl-[2-(2-fluorophenyl)ethyl]amino]-5-methyl-N-methylsulfonyl-thiazole-4-carboxamide], for which the figures for the EC50 in experiment [1] and in experiment [2] were 39.8 nM and 2000 nM, respectively.
Regarding `Cc1sc(N(CCc2ccc(F)cc2)Cc2ccccc2)nc1C(=O)NS(C)(=O)=O` [Compound 340, 2-[benzyl-[2-(4-fluorophenyl)ethyl]amino]-5-methyl-N-methylsulfonyl-thiazole-4-carboxamide], the EC50 is 100 nM in experiment [1] and 251 nM in experiment [2].
Taken in the same sequence, the figures for `Cc1sc(N(Cc2ccccc2)c2ccc(C(F)(F)F)cc2)nc1C(=O)NS(C)(=O)=O` [Compound 341, 2-[N-benzyl-4-(trifluoromethyl)anilino]-5-methyl-N-methylsulfonyl-thiazole-4-carboxamide] were 63.1 nM and 1260 nM.
The corresponding values for `COc1ccc(CN(c2ccc(C#N)cc2)c2nc(C(=O)NS(C)(=O)=O)c(C)s2)cc1` [Compound 342, 2-[4-cyano-N-[(4-methoxyphenyl)methyl]anilino]-5-methyl-N-methylsulfonyl-thiazole-4-carboxamide] are 63.1 nM and 25.1 nM.
Regarding `Cc1sc(N(Cc2cccc(OC(F)(F)F)c2)c2ccc(C#N)cc2)nc1C(=O)NS(C)(=O)=O` [Compound 343, 2-[4-cyano-N-[[3-(trifluoromethoxy)phenyl]methyl]anilino]-5-methyl-N-methylsulfonyl-thiazole-4-carboxamide], the figures for the EC50 in experiment [1] and in experiment [2] were 31.6 nM and 100 nM, respectively.
The corresponding values for `Cc1sc(N(CC2CCCCC2)c2ccc(C#N)cc2)nc1C(=O)NS(C)(=O)=O` [Compound 344, 2-[4-cyano-N-(cyclohexylmethyl)anilino]-5-methyl-N-methylsulfonyl-thiazole-4-carboxamide] are 39.8 nM and 794 nM.
As for `Cc1sc(N(CC2CCN(C)CC2)c2ccc(C#N)cc2)nc1C(=O)NS(C)(=O)=O` [Compound 351, 2-[4-cyano-N-[(1-methyl-4-piperidyl)methyl]anilino]-5-methyl-N-methylsulfonyl-thiazole-4-carboxamide], the EC50 in experiment [1] was > 2000 nM; in experiment [2], > 10000 nM.
The corresponding values for `Cc1sc(N(CCCOCc2ccccc2)c2ccc(C#N)cc2)nc1C(=O)NS(C)(=O)=O` [Compound 359, 2-[N-(3-benzyloxypropyl)-4-cyano-anilino]-5-methyl-N-methylsulfonyl-thiazole-4-carboxamide] are 126 nM and > 10000 nM.
The corresponding values for `Cc1sc(N(Cc2ccc3nonc3c2)c2ccc(C#N)cc2)nc1C(=O)NS(C)(=O)=O` [Compound 361, 2-[N-(2,1,3-benzoxadiazol-5-ylmethyl)-4-cyano-anilino]-5-methyl-N-methylsulfonyl-thiazole-4-carboxamide] are 39.8 nM and 631 nM.
Taken in the same sequence, the figures for `CCS(=O)(=O)NC(=O)c1nc(N(Cc2ccccc2)c2ccc(C#N)cc2)sc1C` [Compound 362, 2-(N-benzyl-4-cyano-anilino)-N-ethylsulfonyl-5-methyl-thiazole-4-carboxamide] were 63.1 nM and 251 nM.
For the compound `Cc1sc(N(Cc2ccccc2)c2ccc(C#N)cc2)nc1C(=O)NS(=O)(=O)C1CC1` [Compound 363, 2-(N-benzyl-4-cyano-anilino)-N-cyclopropylsulfonyl-5-methyl-thiazole-4-carboxamide], the results for the EC50 in experiment [1] and in experiment [2] were 63.1 nM and 1260 nM, respectively.
The corresponding values for `Cc1sc(N(Cc2ccccc2)c2ccc(C#N)cc2)nc1C(=O)NS(=O)(=O)C(F)(F)F` [Compound 364, 2-(N-benzyl-4-cyano-anilino)-5-methyl-N-(trifluoromethylsulfonyl)thiazole-4-carboxamide] are 31.6 nM and > 10000 nM.
